# Data from ChEMBL document CHEMBL5291721, “A preclinical secondary pharmacology resource illuminates target-adverse drug reaction associations of marketed drugs” (Nat Commun, 2023).
# Columns and labels:
# [1] = biological target: Voltage-dependent L-type calcium channel subunit alpha-1C (Rattus norvegicus, UniProt P22002); type: functional
# [2] = biological target: T1, Muscarinic acetylcholine receptor M2 (Homo sapiens, UniProt P08172); type: functional, cell-based
# T1 sequence (P08172 whole entry): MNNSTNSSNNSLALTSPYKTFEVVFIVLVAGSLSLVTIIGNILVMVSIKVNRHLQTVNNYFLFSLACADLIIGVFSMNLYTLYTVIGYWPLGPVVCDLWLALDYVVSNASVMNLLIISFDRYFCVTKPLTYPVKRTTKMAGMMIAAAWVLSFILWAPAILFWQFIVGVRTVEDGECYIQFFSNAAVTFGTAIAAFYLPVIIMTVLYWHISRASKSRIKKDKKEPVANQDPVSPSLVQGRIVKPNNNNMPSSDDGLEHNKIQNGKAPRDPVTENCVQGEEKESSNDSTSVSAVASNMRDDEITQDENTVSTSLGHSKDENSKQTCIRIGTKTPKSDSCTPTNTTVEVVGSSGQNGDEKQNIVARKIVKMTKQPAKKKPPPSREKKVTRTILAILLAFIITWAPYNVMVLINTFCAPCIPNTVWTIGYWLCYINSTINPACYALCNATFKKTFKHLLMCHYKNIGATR
# [3] = biological target: T2, Glucocorticoid receptor (Homo sapiens, UniProt P04150)
# T2 sequence (P04150 whole entry): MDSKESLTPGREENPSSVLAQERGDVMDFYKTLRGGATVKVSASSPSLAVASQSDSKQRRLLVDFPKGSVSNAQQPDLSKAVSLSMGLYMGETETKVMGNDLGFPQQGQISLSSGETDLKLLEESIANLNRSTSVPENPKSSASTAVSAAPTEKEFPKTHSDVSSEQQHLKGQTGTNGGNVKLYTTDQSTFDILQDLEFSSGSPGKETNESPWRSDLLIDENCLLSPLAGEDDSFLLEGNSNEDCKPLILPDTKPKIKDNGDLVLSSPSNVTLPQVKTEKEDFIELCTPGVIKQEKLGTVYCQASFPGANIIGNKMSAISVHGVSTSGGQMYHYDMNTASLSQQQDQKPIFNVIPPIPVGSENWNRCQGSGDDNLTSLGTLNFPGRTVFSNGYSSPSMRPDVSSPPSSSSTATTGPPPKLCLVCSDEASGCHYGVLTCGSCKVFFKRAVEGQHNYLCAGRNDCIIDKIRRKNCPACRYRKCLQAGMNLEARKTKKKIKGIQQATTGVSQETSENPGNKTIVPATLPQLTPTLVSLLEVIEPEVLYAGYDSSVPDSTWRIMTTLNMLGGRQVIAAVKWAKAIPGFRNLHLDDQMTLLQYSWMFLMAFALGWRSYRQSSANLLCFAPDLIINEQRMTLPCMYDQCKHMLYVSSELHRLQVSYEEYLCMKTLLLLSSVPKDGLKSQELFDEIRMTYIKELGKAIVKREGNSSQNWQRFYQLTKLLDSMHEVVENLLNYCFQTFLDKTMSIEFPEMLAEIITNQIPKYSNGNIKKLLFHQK
# [4] = biological target: T3, Progesterone receptor (Homo sapiens, UniProt P06401); type: functional
# T3 sequence (P06401 whole entry): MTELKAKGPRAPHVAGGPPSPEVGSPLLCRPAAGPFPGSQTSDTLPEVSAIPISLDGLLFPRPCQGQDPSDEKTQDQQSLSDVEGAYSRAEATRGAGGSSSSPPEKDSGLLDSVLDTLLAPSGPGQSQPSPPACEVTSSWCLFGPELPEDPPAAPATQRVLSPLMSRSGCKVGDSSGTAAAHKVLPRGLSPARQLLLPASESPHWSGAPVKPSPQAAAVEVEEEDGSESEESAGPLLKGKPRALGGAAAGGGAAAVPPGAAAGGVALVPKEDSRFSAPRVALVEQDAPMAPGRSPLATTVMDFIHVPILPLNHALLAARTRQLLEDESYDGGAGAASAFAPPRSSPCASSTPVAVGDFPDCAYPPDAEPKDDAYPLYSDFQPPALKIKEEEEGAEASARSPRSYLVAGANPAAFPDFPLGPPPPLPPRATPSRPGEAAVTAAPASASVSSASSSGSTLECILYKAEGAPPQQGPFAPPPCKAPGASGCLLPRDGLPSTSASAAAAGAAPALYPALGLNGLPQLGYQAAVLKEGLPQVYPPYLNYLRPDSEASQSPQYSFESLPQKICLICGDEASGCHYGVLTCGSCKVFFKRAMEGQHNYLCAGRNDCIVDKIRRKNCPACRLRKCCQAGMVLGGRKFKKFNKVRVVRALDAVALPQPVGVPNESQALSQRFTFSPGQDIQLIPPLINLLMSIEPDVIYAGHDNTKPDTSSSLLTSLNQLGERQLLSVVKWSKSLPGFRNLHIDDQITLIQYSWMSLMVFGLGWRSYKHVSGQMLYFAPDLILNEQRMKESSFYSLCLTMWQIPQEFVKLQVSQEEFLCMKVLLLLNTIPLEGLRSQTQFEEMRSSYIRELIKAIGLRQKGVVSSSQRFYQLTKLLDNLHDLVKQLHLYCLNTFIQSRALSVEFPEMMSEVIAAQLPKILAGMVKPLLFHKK
# [5] = biological target: Kappa-type opioid receptor (Homo sapiens, UniProt P41145)
# [6] = biological target: Sodium-dependent noradrenaline transporter (Homo sapiens, UniProt P23975)
# [7] = biological target: T4, Alpha-2B adrenergic receptor (Homo sapiens, UniProt P18089)
# T4 sequence (P18089 whole entry): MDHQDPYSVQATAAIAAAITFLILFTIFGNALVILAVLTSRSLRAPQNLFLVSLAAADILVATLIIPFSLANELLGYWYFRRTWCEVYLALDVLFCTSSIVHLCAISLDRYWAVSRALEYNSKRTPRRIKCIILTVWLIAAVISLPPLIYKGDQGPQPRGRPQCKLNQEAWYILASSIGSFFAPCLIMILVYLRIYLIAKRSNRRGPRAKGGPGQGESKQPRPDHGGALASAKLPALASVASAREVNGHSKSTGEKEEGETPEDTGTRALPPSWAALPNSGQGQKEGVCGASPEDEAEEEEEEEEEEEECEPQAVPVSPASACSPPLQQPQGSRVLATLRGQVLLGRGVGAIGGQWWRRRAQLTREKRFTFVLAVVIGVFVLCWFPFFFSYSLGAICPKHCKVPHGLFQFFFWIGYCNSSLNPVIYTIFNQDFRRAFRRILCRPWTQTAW
# Note: assay procedure not described here.
# Sequence of Sodium-dependent noradrenaline transporter (P23975 whole entry): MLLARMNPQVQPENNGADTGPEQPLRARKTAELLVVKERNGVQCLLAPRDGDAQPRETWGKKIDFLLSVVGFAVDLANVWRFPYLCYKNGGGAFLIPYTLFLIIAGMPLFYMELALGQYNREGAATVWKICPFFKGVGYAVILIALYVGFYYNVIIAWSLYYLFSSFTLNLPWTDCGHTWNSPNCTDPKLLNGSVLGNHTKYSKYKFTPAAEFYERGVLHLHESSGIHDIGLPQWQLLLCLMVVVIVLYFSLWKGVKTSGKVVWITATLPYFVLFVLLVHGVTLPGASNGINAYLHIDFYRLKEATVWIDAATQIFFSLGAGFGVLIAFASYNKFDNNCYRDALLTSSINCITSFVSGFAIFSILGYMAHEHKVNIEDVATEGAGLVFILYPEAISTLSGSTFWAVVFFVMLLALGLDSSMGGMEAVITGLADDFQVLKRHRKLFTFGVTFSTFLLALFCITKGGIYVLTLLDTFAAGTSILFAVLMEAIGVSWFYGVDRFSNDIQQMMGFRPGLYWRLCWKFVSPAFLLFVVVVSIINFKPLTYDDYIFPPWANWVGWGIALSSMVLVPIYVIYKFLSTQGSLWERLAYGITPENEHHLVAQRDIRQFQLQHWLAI
# Sequence of Kappa-type opioid receptor (P41145 whole entry): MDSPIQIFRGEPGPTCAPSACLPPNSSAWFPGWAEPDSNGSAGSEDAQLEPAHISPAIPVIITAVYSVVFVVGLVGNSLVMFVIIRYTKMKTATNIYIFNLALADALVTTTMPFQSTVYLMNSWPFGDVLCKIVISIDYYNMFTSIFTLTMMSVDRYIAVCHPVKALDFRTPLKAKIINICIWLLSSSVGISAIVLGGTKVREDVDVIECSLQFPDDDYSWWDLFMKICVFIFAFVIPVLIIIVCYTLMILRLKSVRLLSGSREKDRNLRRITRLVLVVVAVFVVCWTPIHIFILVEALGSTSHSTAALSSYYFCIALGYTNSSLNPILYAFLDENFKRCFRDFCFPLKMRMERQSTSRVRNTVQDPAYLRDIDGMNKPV
# Sequence of Voltage-dependent L-type calcium channel subunit alpha-1C (P22002 whole entry): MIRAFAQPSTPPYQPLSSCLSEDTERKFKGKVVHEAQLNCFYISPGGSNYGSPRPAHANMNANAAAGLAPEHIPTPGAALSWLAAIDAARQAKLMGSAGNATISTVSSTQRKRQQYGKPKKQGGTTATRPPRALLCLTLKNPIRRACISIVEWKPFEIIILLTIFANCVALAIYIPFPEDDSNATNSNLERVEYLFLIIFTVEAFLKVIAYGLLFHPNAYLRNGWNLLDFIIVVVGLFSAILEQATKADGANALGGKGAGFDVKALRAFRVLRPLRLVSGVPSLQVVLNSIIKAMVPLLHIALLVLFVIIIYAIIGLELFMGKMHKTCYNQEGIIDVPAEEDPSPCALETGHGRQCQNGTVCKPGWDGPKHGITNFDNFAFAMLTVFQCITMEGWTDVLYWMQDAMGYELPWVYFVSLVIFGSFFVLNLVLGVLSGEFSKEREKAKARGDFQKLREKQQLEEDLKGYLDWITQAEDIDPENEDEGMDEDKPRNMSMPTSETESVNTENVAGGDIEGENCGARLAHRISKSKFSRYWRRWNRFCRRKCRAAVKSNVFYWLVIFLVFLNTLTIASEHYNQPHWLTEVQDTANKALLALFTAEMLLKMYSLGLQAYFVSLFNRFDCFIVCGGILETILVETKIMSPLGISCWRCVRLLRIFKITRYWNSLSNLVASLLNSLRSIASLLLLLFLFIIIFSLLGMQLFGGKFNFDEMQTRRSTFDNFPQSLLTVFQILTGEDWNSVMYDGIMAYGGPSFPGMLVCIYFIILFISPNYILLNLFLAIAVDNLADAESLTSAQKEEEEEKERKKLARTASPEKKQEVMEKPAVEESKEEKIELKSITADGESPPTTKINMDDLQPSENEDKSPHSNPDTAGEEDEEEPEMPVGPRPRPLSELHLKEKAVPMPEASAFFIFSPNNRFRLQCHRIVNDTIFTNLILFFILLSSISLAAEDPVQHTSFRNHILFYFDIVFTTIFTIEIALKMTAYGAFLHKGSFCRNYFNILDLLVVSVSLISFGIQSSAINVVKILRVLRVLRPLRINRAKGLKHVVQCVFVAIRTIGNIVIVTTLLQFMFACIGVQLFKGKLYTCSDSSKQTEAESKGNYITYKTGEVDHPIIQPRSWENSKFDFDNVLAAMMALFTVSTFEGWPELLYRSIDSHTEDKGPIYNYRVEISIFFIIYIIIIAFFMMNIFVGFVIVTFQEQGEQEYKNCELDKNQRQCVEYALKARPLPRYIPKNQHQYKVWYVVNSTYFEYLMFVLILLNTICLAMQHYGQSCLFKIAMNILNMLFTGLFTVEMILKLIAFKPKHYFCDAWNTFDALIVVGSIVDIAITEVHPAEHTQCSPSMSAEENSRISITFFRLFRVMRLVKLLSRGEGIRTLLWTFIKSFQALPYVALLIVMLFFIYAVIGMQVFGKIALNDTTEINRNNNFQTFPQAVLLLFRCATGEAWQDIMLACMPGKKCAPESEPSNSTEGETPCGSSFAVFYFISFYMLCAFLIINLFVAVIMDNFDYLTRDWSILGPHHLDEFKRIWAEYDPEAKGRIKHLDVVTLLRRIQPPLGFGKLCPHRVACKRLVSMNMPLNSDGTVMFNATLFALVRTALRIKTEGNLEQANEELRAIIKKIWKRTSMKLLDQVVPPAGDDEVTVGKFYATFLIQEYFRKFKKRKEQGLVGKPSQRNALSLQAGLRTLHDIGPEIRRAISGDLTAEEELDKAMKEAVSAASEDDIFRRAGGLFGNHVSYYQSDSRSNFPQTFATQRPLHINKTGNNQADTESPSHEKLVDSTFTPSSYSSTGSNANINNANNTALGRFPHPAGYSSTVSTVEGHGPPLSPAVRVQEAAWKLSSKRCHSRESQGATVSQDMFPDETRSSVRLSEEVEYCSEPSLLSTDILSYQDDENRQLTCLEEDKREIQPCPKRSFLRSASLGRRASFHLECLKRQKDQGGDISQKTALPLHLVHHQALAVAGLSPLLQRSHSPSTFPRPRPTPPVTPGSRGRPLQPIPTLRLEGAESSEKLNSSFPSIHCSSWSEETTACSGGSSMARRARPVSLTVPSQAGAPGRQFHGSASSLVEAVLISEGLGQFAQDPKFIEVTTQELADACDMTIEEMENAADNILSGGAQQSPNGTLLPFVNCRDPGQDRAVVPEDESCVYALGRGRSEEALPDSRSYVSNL
Structure (SMILES),AC50 [1],AC50 [2],AC50 [3],AC50 [4],AC50 [5],AC50 [6],AC50 [7]
CC(C)=CCC/C(C)=C/C=C/C(C)=C/C=C/C(C)=C/C=C/C=C(C)/C=C/C=C(C)/C=C/C=C(\C)CCC=C(C)C [LYCOPENE],> 30 µM,> 30 µM,> 30 µM,> 30 µM,> 30 µM,> 30 µM,> 30 µM
CN1C(=O)C(O)N=C(c2ccccc2Cl)c2cc(Cl)ccc21 (stereo unspecified) [LORMETAZEPAM],> 30 µM,17 µM,> 30 µM,> 30 µM,8.1 µM,> 30 µM,> 30 µM
CC(C[N+](C)(C)C)OC(N)=O (stereo unspecified) [BETHANECHOL],> 10 µM,3.9 µM,> 10 µM,> 10 µM,> 10 µM,> 10 µM,> 10 µM
Cc1cc(O)c(C(=O)N[C@@H](C(=O)N[C@@H]2C(=O)N3C(C(=O)O)=C(CSc4nnnn4C)CS[C@H]23)c2ccc(O)cc2)cn1 [CEFPIRAMIDE],> 30 µM,> 30 µM,> 30 µM,> 30 µM,> 30 µM,> 30 µM,> 30 µM
O=C(O)CCCCCCNC1c2ccccc2CCc2ccccc21 [AMINEPTINE],> 30 µM,> 30 µM,> 30 µM,> 30 µM,> 30 µM,> 30 µM,> 30 µM
C=CCC1(CC(C)C)C(=O)NC(=O)NC1=O [BUTALBITAL],> 10 µM,> 10 µM,> 10 µM,> 10 µM,> 10 µM,> 10 µM,> 30 µM
Cc1cccc(C(C)c2cnc[nH]2)c1C (stereo unspecified) [MEDETOMIDINE],> 30 µM,> 10 µM,> 30 µM,> 30 µM,> 30 µM,> 30 µM,2.1 µM
CCCC(=O)O[C@]1(C(=O)CO)CC[C@H]2[C@@H]3CCC4=CC(=O)CC[C@]4(C)[C@H]3[C@@H](O)C[C@@]21C [HYDROCORTISONE BUTYRATE],> 10 µM,> 10 µM,0.008 µM,0.042 µM,> 10 µM,> 10 µM,> 10 µM
